Experimental data as given in patent publication US7109193B2, “Tricyclic diazepines tocolytic oxytocin receptor antagonists” (Wyeth, priority 2001, dated 2006).

biological target: T1, human vasopressin V2 receptor subtype (Homo sapiens, UniProt P30518); test: Vasopressin binding in Chinese Hamster Ovary cell membranes expressing human vasopressin V2 subtype receptors; details: 100 nM, CHO cell membranes, [3H]arginine vasopressin, values without parentheses
T1 construct: host or cells: CHO cells (pZeoSV vector)
T1 sequence (P30518 whole entry): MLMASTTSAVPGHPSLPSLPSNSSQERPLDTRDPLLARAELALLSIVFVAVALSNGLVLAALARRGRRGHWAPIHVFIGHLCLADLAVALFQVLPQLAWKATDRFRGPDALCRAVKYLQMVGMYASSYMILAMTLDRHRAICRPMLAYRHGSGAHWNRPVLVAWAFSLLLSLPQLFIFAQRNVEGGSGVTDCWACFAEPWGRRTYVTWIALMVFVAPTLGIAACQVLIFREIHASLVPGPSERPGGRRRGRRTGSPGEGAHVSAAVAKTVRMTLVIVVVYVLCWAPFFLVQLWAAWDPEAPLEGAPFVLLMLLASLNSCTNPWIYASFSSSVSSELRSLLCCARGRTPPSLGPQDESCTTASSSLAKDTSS
Procedure, shortened: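 Radioligand displacement on membranes from CHO cells stably expressing human V2 receptor, 25 to 50 μg protein/well, in 50 mM Tris-HCl pH 7.4 with MgCl2, BSA and protease inhibitors. [^3H]arginine vasopressin (8 nM working solution) incubated 60 min at room temperature; bound label measured by filtration and scintillation counting.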

In order of falling inhibition at 0.1 µM:
1. COc1ccccc1-c1ccc(C(=O)N2Cc3ccc(C(=O)N[C@H]4CN5CCC4CC5)n3Cc3ccccc32)cc1C [Example 298, N-[(3R)-1-Azabicyclo[2.2.2]oct-3-yl]-10-[(2′-methoxy-2-methyl[1,1′-biphenyl]-4-yl)carbonyl]-10,11-dihydro-5H-pyrrolo[2,1-c][1,4]benzodiazepine-3-carboxamide]  29%
2. COc1ccccc1-c1ccc(C(=O)N2Cc3ccc(C(=O)N[C@H]4CN5CCC4CC5)n3Cc3ccccc32)cc1 [Example 296, N-[(3R)-1-Azabicyclo[2.2.2]oct-3-yl]-10-[(2′-methoxy[1,1′-biphenyl]-4-yl)carbonyl]-10,11-dihydro-5H-pyrrolo[2,1-c][1,4]benzodiazepine-3-carboxamide]  24%
3. COc1ccccc1-c1ccc(C(=O)N2Cc3ccc(C(=O)N[C@@H]4CN5CCC4CC5)n3Cc3ccccc32)cc1C [Example 295, N-[(3S)-1-Azabicyclo[2.2.2]oct-3-yl]-10-[(2′-methoxy-2-methyl[1,1′-biphenyl]-4-yl)carbonyl]-10,11-dihydro-5H-pyrrolo[2,1-c][1,4]benzodiazepine-3-carboxamide]  22%
4. COc1ccccc1-c1ccc(C(=O)N2Cc3ccc(C(=O)N[C@H]4CN5CCC4CC5)n3Cc3ccccc32)cc1OC [Example 299, N-[(3R)-1-Azabicyclo[2.2.2]oct-3-yl]-10-[(2,2′-dimethoxy[1,1′-biphenyl]-4-yl)carbonyl]-10,11-dihydro-5H-pyrrolo[2,1-c][1,4]benzodiazepine-3-carboxamide]  22%
5. COc1ccccc1-c1ccc(C(=O)N2Cc3ccc(C(=O)N[C@@H]4CN5CCC4CC5)n3Cc3ccccc32)cc1OC [Example 300, N-[(3S)-1-Azabicyclo[2.2.2]oct-3-yl]-10-[(2,2′-dimethoxy[1,1′-biphenyl]-4-yl)carbonyl]-10,11-dihydro-5H-pyrrolo[2,1-c][1,4]benzodiazepine-3-carboxamide]  19%
6. COc1cc(-c2ccccc2C)c(Cl)cc1C(=O)N1Cc2ccc(C(=O)N[C@@H](CCCCNC(=O)OC(C)(C)C)C(N)=O)n2Cc2ccccc21 [Example 304, tert-Butyl (5S)-6-amino-5-[({10-[(6-chloro-3-methoxy-2′-methyl[1,1′-biphenyl]-4-yl)carbonyl]-10,11-dihydro-5H-pyrrolo[2,1-c][1,4]benzodiazepin-3-yl}carbonyl)amino]-6-oxohexylcarbamate]  19%
7. COc1cccc(-c2cc(OC)c(C(=O)N3Cc4ccc(C(=O)N[C@@H](CCCCNC(=O)OC(C)(C)C)C(N)=O)n4Cc4ccccc43)cc2Cl)c1 [Example 302, tert-Butyl (5S)-6-amino-5-[({10-[(6-chloro-3,3′-dimethoxy[1,1′-biphenyl]-4-yl)carbonyl]-10,11-dihydro-5H-pyrrolo[2,1-c][1,4]benzodiazepin-3-yl}carbonyl)amino]-6-oxohexylcarbamate]  17%
8. COc1ccccc1-c1ccc(C(=O)N2Cc3ccc(C(=O)N[C@@H](CCCCNC(=O)OC(C)(C)C)C(N)=O)n3Cc3ccccc32)cc1OC [Example 303, tert-Butyl (5S)-6-amino-5-[({10-[(2,2′-dimethoxy[1,1′-biphenyl]-4-yl)carbonyl]-10,11-dihydro-5H-pyrrolo[2,1-c][1,4]benzodiazepin-3-yl}carbonyl)amino]-6-oxohexylcarbamate]  14%
9. COc1cc(-c2ccccc2C)c(Cl)cc1C(=O)N1Cc2ccc(C(=O)N[C@@H]3CN4CCC3CC4)n2Cc2ccccc21 [Example 297, N-[(3S)-1-Azabicyclo[2.2.2]oct-3-yl]-10-[(6-chloro-3-methoxy-2′-methyl-[1,1′-biphenyl]-4-yl)carbonyl]-10,11-dihydro-5H-pyrrolo[2,1-c][1,4]benzodiazepine-3-carboxamide]  13%
10. Cc1cc(C(=O)N2Cc3ccc(C(=O)N[C@H]4CN5CCC4CC5)n3Cc3ccccc32)ccc1-c1ccccc1C(F)(F)F [Example 301, N-[(3R)-1-Azabicyclo[2.2.2]oct-3-yl]-10-{[2-methyl-2′-(trifluoromethyl)[1,1′-biphenyl]-4-yl]carbonyl}-10,11-dihydro-5H-pyrrolo[2,1-c][1,4]benzodiazepine-3-carboxamide]  9%
11. COc1cc(C(=O)N2Cc3ccc(C(=O)N4CCCN(C)CC4)n3Cc3ccccc32)ccc1-n1c(C)ccc1C [Example 307, {10-[4-(2,5-Dimethyl-1H-pyrrol-1-yl)-3-methoxybenzoyl]-10,11-dihydro-5H-pyrrolo[2,1-c][1,4]benzodiazepin-3-yl}(4-methyl-1,4-diazepan-1-yl)methanone]  8%
12. COc1cc(C(=O)N2Cc3ccc(C(=O)N(C)CCN(C)C)n3Cc3ccccc32)ccc1-n1c(C)ccc1C [Example 309, N-[2-(Dimethylamino)ethyl]-10-[4-(2,5-dimethyl-1H-pyrrol-1-yl)-3-methoxybenzoyl]-N-methyl-10,11-dihydro-5H-pyrrolo[2,1-c][1,4]benzodiazepine-3-carboxamide]  7%
13. COc1cc(C(=O)N2Cc3ccc(C(=O)N4CCC(N5CCCCC5)CC4)n3Cc3ccccc32)ccc1-n1c(C)ccc1C [Example 311, {10-[4-(2,5-Dimethyl-1H-pyrrol-1-yl)-3-methoxy-benzoyl]-10,11-dihydro-5H-pyrrolo[2,1-c][1,4]benzodiazepin-3-yl}[4-(1-piperidinyl)-1-piperidinyl]-methanone]  7%
14. COc1cc(C(=O)N2Cc3ccc(C(=O)NCCN4CCCCC4)n3Cc3ccccc32)ccc1-n1c(C)ccc1C [Example 314, 10-[4-(2,5-Dimethyl-1H-pyrrol-1-yl)-3-methoxybenzoyl]-N-[2-(1-piperidinyl)ethyl]-10,11-dihydro-5H-pyrrolo[2,1-c][1,4]benzodiazepine-3-carboxamide]  7%
15. COc1cc(C(=O)N2Cc3ccc(C(=O)NCCCn4ccnc4)n3Cc3ccccc32)ccc1-n1c(C)ccc1C [Example 312, 10-[4-(2,5-Dimethyl-1H-pyrrol-1-yl)-3-methoxybenzoyl]-N-[3-(1H-imidazol-1-yl)propyl]-10,11-dihydro-5H-pyrrolo[2,1-c][1,4]benzodiazepine-3-carboxamide]  3%
16. COc1cc(C(=O)N2Cc3ccc(C(=O)N4CCC(N5CCCC5)CC4)n3Cc3ccccc32)ccc1-n1c(C)ccc1C [Example 313, {10-[4-(2,5-Dimethyl-1H-pyrrol-1-yl)-3-methoxybenzoyl]-10,11-dihydro-5H-pyrrolo[2,1-c][1,4]benzodiazepin-3-yl}[4-(1-pyrrolidinyl)-1-piperidinyl]methanone]  2%
17. COc1cc(C(=O)N2Cc3ccc(C(=O)NCCCN(C)C)n3Cc3ccccc32)ccc1-n1c(C)ccc1C [Example 308, N-[3-(Dimethylamino)propyl]-10-[4-(2,5-dimethyl-1H-pyrrol-1-yl)-3-methoxybenzoyl]-10,11-dihydro-5H-pyrrolo[2,1-c][1,4]benzodiazepine-3-carboxamide]  1%
18. COc1cc(C(=O)N2Cc3ccc(C(=O)N4CCN(C)CC4)n3Cc3ccccc32)ccc1-n1c(C)ccc1C [Example 306, {10-[4-(2,5-Dimethyl-1H-pyrrol-1-yl)-3-methoxybenzoyl]-10,11-dihydro-5H-pyrrolo[2,1-c][1,4]benzodiazepin-3-yl}(4-methyl-1-piperazinyl)methanone]  0%
